# Structures can show the parent of a compound that is named as a salt. Where two headings read alike, the source gives them in different places.
# How the values were obtained:
# [1] = Pharmacokinetics after administration of the subject combination (steady state); details: for apparent elimination half-life: bupropion metabolites
# [2] = Pharmacokinetics of the subject combination in CYP2D6 poor metabolizers (Example 2)
# Excerpt: Approximately 7 to 10% of Caucasians and 3 to 8% of African Americans lack the capacity to metabolize CYP2D6 substrates and are classified as poor metabolizers.
# [3] = Co-administration of paroxetine and the subject combination in healthy volunteers (Example 3)
# Excerpt: Co-administration of the SSRI paroxetine and the subject combination was studied in 29 healthy volunteers.
# [4] = Food effect on pharmacokinetics of the subject combination; format: in vivo, human; details: subject combination administered with food
# [5] = Pharmacokinetics of the subject combination in moderate renal impairment (Example 1); details: moderate renal impairment (GFR 30-60 mL/min)
# [6] = human, in vivo
# [7] = cited from earlier work; for incidence of sedation (MOAA/S score <5): treatment-resistant depression
smiles,measurement,setting,value
C[C@H]1NC(C)(C)CO[C@]1(O)c1cccc(Cl)c1 [hydroxybupropion],apparent elimination half-life,[1],approximately 35 hours
"COc1ccc2c(c1)[C@]13CCCC[C@@H]1[C@H](C2)N(C)CC3 [dextromethorphan, morphinan, 3-methoxy-17-methyl-, (9α, 13α, 14α), hydrobromide monohydrate]",steady state plasma concentrations compared with non-poor metabolizers,[2]; 12 poor metabolizers in efficacy trials,generally higher
same,increase in AUC0-12 compared to extensive metabolizers,[2]; CYP2D6 poor metabolizers,~3.4 fold
same,increase in Cmax compared to extensive metabolizers,[2]; CYP2D6 poor metabolizers,~3 fold
same,increase in overall exposure when paroxetine is co-administered with the subject combination,[3]; healthy volunteers,2.5 fold
same,decrease in AUC0-12 with food,[4],14%
same,increase in exposure versus matched controls with normal renal function,[5],approximately 2 fold
same,reduction in clearance versus matched controls with normal renal function,[5],50%
same,increase in mean elimination half-life versus dextromethorphan given without bupropion,"[1]; 8 days of subject combination, extensive metabolizers",approximately 3 fold
same,median Tmax,[1]; after administration of the subject combination,about 3 hours
same,dose proportionality of AUC and Cmax at steady state,"[1]; co-administered with bupropion, dextromethorphan 30 to 60 mg, bupropion 75 to 150 mg",nonlinear pharmacokinetics
same,mean elimination half-life,"[1]; human, in vivo",22 h
C[C@H](NC(C)(C)C)[C@@H](O)c1cccc(Cl)c1 [threohydroxybupropion],apparent elimination half-life,[1],~33 h
Fc1ccc([C@@H]2CCNC[C@H]2COc2ccc3c(c2)OCO3)cc1 [paroxetine],increase in overall exposure of paroxetine when co-administered with the subject combination,"[3]; human, in vivo",1.2 fold
CC(NC(C)(C)C)C(O)c1cccc(Cl)c1 (stereo not shown) [erythrohydroxybupropion],apparent elimination half-life,[1],~44 h
"CC(NC(C)(C)C)C(=O)c1cccc(Cl)c1.Cl (racemic) [bupropion, (±)-1-(3-chlorophenyl)-2-[(1,1-dimethylethyl)amino]-1-propanone hydrochloride]",increase in exposure versus matched controls with normal renal function,[6],approximately 2 fold
same,reduction in clearance versus matched controls with normal renal function,[6],50%
same,increase in overall exposure when paroxetine is co-administered with the subject combination,"[3]; human, in vivo",no effect
"CN[C@]1(c2ccccc2Cl)CCCCC1=O [esketamine, Esketamine]",incidence of sedation (MOAA/S score <5),"[7]; 56 mg + oral AD, patients <65 years, fixed-dose study",50%
same,incidence of sedation (MOAA/S score <5),"[7]; 84 mg + oral AD, patients <65 years, fixed-dose study",61%
same,incidence of sedation (MOAA/S score <5),"[7]; 28 to 84 mg + oral AD, patients ≥65 years, flexible-dose study",49%
same,incidence of sedation (MOAA/S score<5) compared to placebo plus oral antidepressant,"[7]; plus oral antidepressant, adults with MDD with acute suicidal ideation or behavior",higher incidence of sedation

# Source: patent US12042473B2, “Compounds and combinations thereof for treating neurological and psychiatric conditions” (priority 2022, dated 2024)
